What was measured:
[1] = test system: SNARE complex with syntaxin and synaptobrevin; test: SDS-resistant SNARE complex formation (SDS-PAGE); assay type: biochemical; details: without Hsc70, mixed with syntaxin and synaptobrevin, 1 M NaCl, 4 °C
Protocol: We took aliquots of SNAP-25 at different time points of the aggregation reaction (at 0 h, in lag phase and at 64 h in the log or saturation phase, Fig. 2A) and mixed them with the SNARE motifs of syntaxin and synaptobrevin to allow the formation of the SNARE complex.
Figure 6 Hsc70 facilitates incorporation of SNAP-25 into the SNARE complex in vitro. SDS-PAGE of SNAP-25 taken from the aggregation reactions (Fig. 2) at 0 h and 64 h after the initiation, without (left) and with Hsc70 (right), and mixed with syntaxin and synaptobrevin for the time indicated below each SDS-PAGE. SNAP-25 is expressed and purified from E. coli; a minor amount of the bacterial Hsp70 homolog DnaK (∼70 kDa) may copurify with SNAP-25, explaining the presence of higher molecular weight bands, with its proteolysis potentially occurring during ∼64-h SNAP-25 aggregation reactions. For synaptobrevin, we attribute the higher molecular weight bands to incomplete cleavage of GST-tagged synaptobrevin.
The SNARE motifs were mixed in an equimolar ratio in the following order: synaptobrevin-2 (29–93), syntaxin-1A (191–253), and SNAP-25 taken from the aggregation reaction, in the presence of 1 M NaCl. The assembly reaction was incubated at 4 °C overnight while rotating. The SNARE motifs were concentrated using a 30-kDa molecular weight cutoff Amicon centrifugation filters and run on 4 to 20% gradient SDS-PAGE.

SNAP-25 [2] = details: also Fig. S1; cited from earlier work
Text: SNAP-25 has four native cysteines that are palmitoylated upon interaction with the membrane. […] For all of our studies, the SNAP-25 CS mutant was used unless otherwise mentioned. We assessed formation of the Hsc70-SNAP-25 complex by CD and found no significant conformational ...

SNAP-25 [3] = test: Far-UV CD; assay type: physicochemical; details: far-UV CD 200–250 nm, 22 °C (Fig. S1)
Protocol: SNAP-25 has four native cysteines that are palmitoylated upon interaction with the membrane. […] For all of our studies, the SNAP-25 CS mutant was used unless otherwise mentioned.
The far-UV CD spectra (200–250 nm) were recorded on a Jasco J-1500 Circular Dichroism Spectrophotometer at 22 °C. The SNAP-25 WT, SNAP-25, and mixture of SNAP-25 and Hsc70 were taken in a 1 mm path length quartz cuvette. Figures show the average of ten scans where the buffer baselines were subtracted. Data were plotted using software using the Origin (Pro) program (OriginLab Corp).

SNAP-25 [4] = test: SNAP-25 aggregation kinetics by optical density; assay type: biochemical; details: SNAP-25 (CS mutant) 50 μM alone, 37 °C, shaking 300 rpm, OD 360 nm, 20 mM phosphate buffer pH 7.4, 100 μM MgCl2, 100 mM KCl
Protocol: To test our hypothesis that Hsc70 inhibits SNAP-25 aggregation, we monitored the aggregation kinetics of recombinantly expressed SNAP-25 in the absence and presence of Hsc70 by following optical density at 360 nm (Fig. 2). […] This lag time was elongated to ∼65 h in the presence of Hsc70. In neurons, Hsc70 works in collaboration with its co-chaperone CSPα. […] (Fig. S2A). Apg2 is a member of the Hsp110 family, which is known to suppress protein aggregation ([36]). […] (Fig. S2B).
Figure 2 Hsc70 delays the aggregation of SNAP-25. Aggregation kinetics of SNAP-25 (50 μM) at 37 °C. Optical density of SNAP-25 was recorded at 360 nm in the absence (black) and in the presence of Hsc70 (5 μM, red), and Hsc70+CSPαJ (5 μM each, blue).
Aggregation of SNAP-25 at 50 μM was followed by measuring the A360 in a 96-well plate using a BioTek plate reader (BioTek), at 37 °C with shaking at 300 rpm, in the absence and presence of Hsc70 and CSPαJ at 5 μM each, and Apg2 at 0.5 μM. The aggregation buffer included 20 mM phosphate buffer pH 7.4, 100 μM MgCl2, and 100 mM KCl, and an ATP-experiment was carried out using regeneration system (5 mM 2-phosphoenolpyruvate, 0.05 mg/ml pyruvate kinase, and 5 mM ATP), as described previously ([51]).
Figure SI 2. Apg2 enhances the effect of Hsc70 on SNAP-25. (A) Aggregation kinetics of SNAP-25 (50 μM) at 37 °C. OD600 of SNAP-25 was recorded in the absence (black) and in the presence of Hsc70, Hsc70+CSPa-J (blue) and Hsc70+CSPa-J+Apg2 (turquoise). […]
concentrations are SNAP-25 (50 μM), Hsc70 (5 μM), CSPa-J (5 μM) and Apg2 (0.5 μM).
(B) Aggregation kinetics of SNAP-25 (50 μM) at 37 °C. OD600 of SNAP-25 was recorded in the absence (black) and in the presence of Apg2 (blue). […]

Hsc70 = target: T1, Hsc70 (Homo sapiens, UniProt P11142); test: Native PAGE / Western blot of SNAP-25-Hsc70 complex; assay type: binding; details: SNAP-25 10 μM, Hsc70 2 μM, anti-Hsc70 and anti-His Western blot
T1 construct: 6X His-tag (TEV-cleavable) (cleaved yes); made in house; host or cells: E. coli Rosetta (DE3)
Protocol: Figure 3 Hsc70 forms complexes with SNAP-25.A, native PAGE of SNAP-25 (10 μM) in the presence and absence of Hsc70 (2 μM). The difference in signal intensity of His-SNAP25 probed with antibody is likely due to altered epitope exposure upon formation of the SNAP-25-Hsc70 complex. B, binding of SNAP-25 (black), SNAP-25 SNN (SNNFR, orange), and SNC (SNCFR, green)) fragments to Hsc70 by competition followed by fluorescence anisotropy. Increasing concentrations of the competitors were added to a complex of Hsc70 (5 μM) and FITC-p5 peptide (50 nM). Error bars represent SDs from three independent experiments.
Precast native PAGE gels (Bio-Rad, 4–20%) were used to separate proteins based on their conformation and charge. SNAP-25 (10 μM), Hsc70 (2 μM) and a mix of both samples were mixed with a nondenaturing loading buffer and directly loaded onto the gel without heating. Electrophoresis was carried out in Tris-glycine running buffer at 180V for approximately 1 h until the dye front reached the bottom of the gel. Gels were stained with Coomassie Brilliant Blue R-250 (Sigma-Aldrich) and destained in a methanol-acetic acid solution until clear bands were visible.

T1 sequence (P11142 whole entry): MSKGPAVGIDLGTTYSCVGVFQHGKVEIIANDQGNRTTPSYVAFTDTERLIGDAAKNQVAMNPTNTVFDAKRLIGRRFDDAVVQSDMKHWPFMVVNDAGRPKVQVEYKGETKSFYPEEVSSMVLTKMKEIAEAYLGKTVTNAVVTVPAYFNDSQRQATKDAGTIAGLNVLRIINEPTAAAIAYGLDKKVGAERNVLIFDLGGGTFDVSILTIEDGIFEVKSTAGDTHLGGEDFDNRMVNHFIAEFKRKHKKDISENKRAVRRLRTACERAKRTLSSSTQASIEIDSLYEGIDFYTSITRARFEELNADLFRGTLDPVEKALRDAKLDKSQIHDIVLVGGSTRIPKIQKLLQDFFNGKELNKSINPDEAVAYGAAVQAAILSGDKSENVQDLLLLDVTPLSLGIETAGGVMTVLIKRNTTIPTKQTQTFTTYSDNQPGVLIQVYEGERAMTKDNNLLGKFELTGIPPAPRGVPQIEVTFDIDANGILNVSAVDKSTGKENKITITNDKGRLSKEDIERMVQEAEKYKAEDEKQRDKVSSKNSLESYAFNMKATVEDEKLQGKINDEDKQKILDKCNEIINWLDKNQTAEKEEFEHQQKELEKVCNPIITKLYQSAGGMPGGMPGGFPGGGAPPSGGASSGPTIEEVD

synaptosomal-associated 25 kDa protein [SNAP-25]
SNARE complex formation by SNAP-25 taken at 0 h of aggregation [1]: forms SDS-resistant SNARE complexes
SNARE complex formation by SNAP-25 taken at 64 h of aggregation [1]: unable to form the SNARE complexes
secondary structure by CD (SNAP-25 [2]): disordered with nascent helical tendencies
conformational change upon Hsc70-SNAP-25 interaction (SNAP-25 [3]): no significant conformational change
lag phase of SNAP-25 aggregation (SNAP-25 [4]): ~38 h
complex formation of His-SNAP-25 with Hsc70 (Hsc70): a complex can be seen

— PMC11697113, “The Hsc70 system maintains the synaptic SNARE protein SNAP-25 in an assembly-competent state and delays its aggregation [drawing 1]” (The Journal of Biological Chemistry, 2024)
